From ChEMBL document CHEMBL1154088, “Synthesis, biological evaluation and docking studies of novel benzopyranone congeners for their expected activity as anti-inflammatory, analgesic and antipyretic agents” (Bioorg Med Chem, 2009)

Experiments:
[1] = tested on: Mus musculus; assay: Analgesic activity in mouse assessed as protection against acetic acid-induced writhing at one-tenth of LD50 administered subcutaneously 30 mins before acetic acid challenge measured after 2 hrs relative to control; type: functional
[2] = tested on: Mus musculus; assay: Analgesic activity in mouse assessed as protection against acetic acid-induced writhing at one-tenth of LD50 administered subcutaneously 30 mins before acetic acid challenge measured after 4 hrs relative to control; type: functional
[3] = tested on: Mus musculus; assay: Analgesic activity in mouse assessed as protection against acetic acid-induced writhing at one-tenth of LD50 administered subcutaneously 30 mins before acetic acid challenge measured after 3 hrs relative to control; type: functional
[4] = tested on: Rattus norvegicus; assay: Antipyretic activity against yeast-induced hyperpyrexia in hyperthermic rat assessed as rectal temperature at one-tenth of LD50 administered subcutaneously 18 hrs after yeast challenge measured after 4 hrs (Rvb=39.17 +/- 0.20 degC); type: functional
[5] = tested on: Rattus norvegicus; assay: Antipyretic activity against yeast-induced hyperpyrexia in hyperthermic rat assessed as rectal temperature at one-tenth of LD50 administered subcutaneously 18 hrs after yeast challenge measured after 3 hrs (Rvb=39.20 +/- 0.24 degC); type: functional
[6] = tested on: Rattus norvegicus; assay: Antipyretic activity against yeast-induced hyperpyrexia in hyperthermic rat assessed as rectal temperature at one-tenth of LD50 administered subcutaneously 18 hrs after yeast challenge measured after 2 hrs (Rvb=39.11 +/- 0.26 degC); type: functional
[7] = tested on: Rattus norvegicus; assay: Antipyretic activity against yeast-induced hyperpyrexia in hyperthermic rat assessed as rectal temperature at one-tenth of LD50 administered subcutaneously 18 hrs after yeast challenge measured after 1 hr (Rvb=39.24 +/- 0.22 degC); type: functional
[8] = tested on: Rattus norvegicus; assay: Antiinflammatory activity against carrageenan-induced foot paw edema in rat assessed as reduction in paw size at one-tenth of LD50 administered subcutaneously 30 mins before carrageenan challenge measured after 3 hrs relative to control; type: functional; set-up: scale not given: the % may be the effect or the level left
[9] = Toxicity in sc dosed albino mouse up to 24 hrs; type: organism-based; conditions: in vivo
[10] = tested on: Mus musculus; assay: Analgesic activity in mouse assessed as protection against acetic acid-induced writhing at one-tenth of LD50 administered subcutaneously 30 mins before acetic acid challenge measured after 1 hr relative to control; type: functional
[11] = tested on: Rattus norvegicus; assay: Antipyretic activity against yeast-induced hyperpyrexia in hyperthermic rat assessed as rectal temperature at 100 mg/kg, sc administered 18 hrs after yeast challenge measured after 3 hrs (Rvb=39.20 +/- 0.24 degC); type: functional; conditions: route subcutaneous
[12] = tested on: Rattus norvegicus; assay: Antipyretic activity against yeast-induced hyperpyrexia in hyperthermic rat assessed as rectal temperature at 100 mg/kg, sc administered 18 hrs after yeast challenge measured after 4 hrs (Rvb=39.17 +/- 0.20 degC); type: functional; conditions: route subcutaneous
[13] = tested on: Rattus norvegicus; assay: Antipyretic activity against yeast-induced hyperpyrexia in hyperthermic rat assessed as rectal temperature at 100 mg/kg, sc administered 18 hrs after yeast challenge measured after 2 hrs (Rvb=39.11 +/- 0.26 degC); type: functional; conditions: route subcutaneous
[14] = tested on: Rattus norvegicus; assay: Antipyretic activity against yeast-induced hyperpyrexia in hyperthermic rat assessed as rectal temperature at 100 mg/kg, sc administered 18 hrs after yeast challenge measured after 1 hr (Rvb=39.24 +/- 0.22 degC); type: functional; conditions: route subcutaneous
[15] = tested on: Rattus norvegicus; assay: Antiinflammatory activity against carrageenan-induced foot paw edema in rat assessed as reduction in paw size at 20 mg/kg, sc administered 30 mins before carrageenan challenge measured after 3 hrs relative to control; type: functional; set-up: scale not given: the % may be the effect or the level left; conditions: route subcutaneous
[16] = tested on: Mus musculus; assay: Analgesic activity in mouse assessed as protection against acetic acid-induced writhing at 5 mg/kg, sc administered 30 mins before acetic acid challenge measured after 2 hrs relative to control; type: functional; conditions: route subcutaneous
[17] = tested on: Mus musculus; assay: Analgesic activity in mouse assessed as protection against acetic acid-induced writhing at 5 mg/kg, sc administered 30 mins before acetic acid challenge measured after 1 hr relative to control; type: functional; conditions: route subcutaneous
[18] = tested on: Mus musculus; assay: Analgesic activity in mouse assessed as protection against acetic acid-induced writhing at 5 mg/kg, sc administered 30 mins before acetic acid challenge measured after 4 hrs relative to control; type: functional; conditions: route subcutaneous
[19] = tested on: Mus musculus; assay: Analgesic activity in mouse assessed as protection against acetic acid-induced writhing at 5 mg/kg, sc administered 30 mins before acetic acid challenge measured after 3 hrs relative to control; type: functional; conditions: route subcutaneous

N#Cc1c(-c2cccnc2)cc(-c2c(O)ccc3c(-c4ccccc4)cc(=O)oc23)[nH]c1=N
Activity [1]: 7.02%
Activity [2]: 5.15%
Activity [3]: 5.15%
Activity [4]: 38.91 °C
Activity [5]: 38.91 °C
Activity [6]: 38.94 °C
Activity [7]: 39.11 °C
Activity [8]: 16.21%
LD50 at 24 h [9]: 370 mg/kg
Activity [10]: 7.49%

CN(C)c1ccc(-c2cc(-c3c(O)ccc4c(-c5ccccc5)cc(=O)oc34)[nH]c(=N)c2C#N)cc1
Activity [1]: 12%
Activity [2]: 3.76%
Activity [3]: 11.52%
Activity [4]: 38.89 °C
Activity [5]: 38.39 °C
Activity [6]: 38.17 °C
Activity [7]: 38.38 °C
Activity [8]: 18.85%
LD50 at 24 h [9]: 310 mg/kg
Activity [10]: 9.41%

N#Cc1c(-c2ccccc2O)cc(-c2c(O)ccc3c(-c4ccccc4)cc(=O)oc23)[nH]c1=N
Activity [1]: 9.38%
Activity [2]: 2.58%
Activity [3]: 9.62%
Activity [4]: 38.94 °C
Activity [5]: 38.91 °C
Activity [6]: 38.91 °C
Activity [7]: 39.01 °C
Activity [8]: 16.31%
LD50 at 24 h [9]: 310 mg/kg
Activity [10]: 9.62%

COc1ccc(-c2cc(-c3c(O)ccc4c(-c5ccccc5)cc(=O)oc34)[nH]c(=N)c2C#N)cc1
Activity [1]: 0.7%
Activity [2]: 1.88%
Activity [3]: 1.17%
Activity [4]: 38.91 °C
Activity [5]: 38.81 °C
Activity [6]: 38.81 °C
Activity [7]: 38.9 °C
Activity [8]: 15.94%
LD50 at 24 h [9]: 330 mg/kg
Activity [10]: 4.7%

N#Cc1c(-c2ccc(Cl)cc2)cc(-c2c(O)ccc3c(-c4ccccc4)cc(=O)oc23)[nH]c1=N
Activity [1]: 2.58%
Activity [2]: 3.52%
Activity [3]: 5.39%
Activity [4]: 38.91 °C
Activity [5]: 38.84 °C
Activity [6]: 39 °C
Activity [7]: 38.91 °C
Activity [8]: 4.7%
LD50 at 24 h [9]: 390 mg/kg
Activity [10]: 3.28%

CC(=O)Nc1ccc(O)cc1 [ACETAMINOPHEN]
Activity [11]: 37.27 °C
Activity [12]: 37.16 °C
Activity [13]: 37.2 °C
Activity [14]: 37.38 °C

Cc1ccc(-c2cc(C(F)(F)F)nn2-c2ccc(S(N)(=O)=O)cc2)cc1 [CELECOXIB]
Activity [15]: 39.67%

O=C([O-])Cc1ccccc1Nc1c(Cl)cccc1Cl.[Na+] [DICLOFENAC SODIUM]
Activity [16]: 75.24%
Activity [17]: 74.02%
Activity [18]: 55.82%
Activity [19]: 68.44%
